From patent publication US9012433B2, “Substituted tetracycline compounds” (Paratek Pharmaceuticals, Inc., priority 2006, dated 2015)
In brackets after ≈: the same amount, converted by molar mass.

Assays:
Type in all cases: cell-based
E. coli MG 1655 = experiment: Antibacterial MIC, CLSI broth microdilution; details: Escherichia coli, MG1655; 35° C., 18-24 hours
Protocol: (§1) Grain (−) and gram (+) antibacterial minimum inhibitory concentration (MIC) values (μg/mL) were obtained using CLSI methodology for anti-bacterial susceptibility testing. On each day of testing, serial dilutions of compounds were prepared in microdilution plates using a Tecan robotic workstation. Mueller Hinton broth cultures of representative sensitive and resistant gram negative strains were grown or adjusted to match the turbidity of a 0.5 McFarland standard. 1:200 dilutions were made in an appropriate broth (cation supplemented Mueller Hinton broth) to allow a final inoculum of 1×10^5 cfu. Plates were incubated at 35° C. in ambient air for 18-24 hours, were read spectrophotometrically and checked manually for evidence of bacterial growth. The lowest dilution of compound that inhibited growth was recorded as the MIC. Lysed horse blood was used to supplement broth for testing S. pneumoniae. The MIC's for each compound were assessed against S. aureus, S. pneumoniae, P. acnes, E. coli and B. theta.

P. acnes ATCC 11827 = experiment: Antibacterial MIC, CLSI broth microdilution; details: Cutibacterium acnes, ATCC11827; 35° C., 18-24 hours
Protocol: as §1

[1] = system: S. pneumoniae 157E - Strep; experiment: Antibacterial MIC, CLSI broth microdilution; details: Streptococcus pneumoniae, 157ESTREP; 35° C., 18-24 hours; lysed horse blood
Protocol: as §1

P. acnes ATCC 6919 = experiment: Antibacterial MIC, CLSI broth microdilution; details: Cutibacterium acnes, ATCC6919; 35° C., 18-24 hours
Protocol: as §1

[2] = system: B. thetaiotaomicron ATCC 29741; experiment: Antibacterial MIC, CLSI broth microdilution; details: Bacteroides thetaiotaomicron, ATCC29741; 35° C., 18-24 hours; read-out: MIC B. thetaiotaomicron ATCC 29741
Protocol: as §1

S. aureus RN450 = experiment: Antibacterial MIC, CLSI broth microdilution; details: Staphylococcus aureus, RN450; 35° C., 18-24 hours
Protocol: as §1

E. coli ATCC 25922 = experiment: Antibacterial MIC, CLSI broth microdilution; details: Escherichia coli, ATCC25922; 35° C., 18-24 hours
Protocol: as §1

in vitro = experiment: in vitro
Protocol: Mammalian cell cytotoxicity was assessed to evaluate potential in vivo risks associated with the tetracycline compounds of the invention. A soluble, non-toxic redox dye (“Resazurin”; Alamar Blue) was used to assess a tetracycline compound's effect on cellular metabolism. At the onset of the experiment, cultures of mammalian COS-1 or CHO cells were washed, trypsinized, and harvested. […] On the next day, serial dilutions of test drug were prepared under sterile conditions and transferred to cell plates. Plates were then incubated under the above conditions for 24 hours. Following the incubation period, the media/drug was aspirated, and 50 μL of resazurin was added. Plates were then incubated under the above conditions for 2 hours and then in the dark at room temperature for an additional 30 minutes. Fluorescence measurements were taken (excitation 535 nm, emission 590 nm) and toxic effects in treated versus control cells were compared based on the degree of fluorescence in each well.

Structure (SMILES)	MIC (E. coli MG 1655) [µg/mL]	MIC (P. acnes ATCC 11827) [µg/mL]	MIC [1] [µg/mL]	MIC (P. acnes ATCC 6919) [µg/mL]	MIC [2] [µg/mL]	MIC (S. aureus RN450) [µg/mL]	MIC (E. coli ATCC 25922) [µg/mL]	IC50 at 24 h (in vitro; African green monkey) [µg/mL]	IC50 at 24 h (in vitro; Chinese hamster) [µg/mL]
CN(C)[C@@H]1C(O)=C(C(N)=O)C(=O)[C@@]2(O)C(O)=C3C(=O)c4c(O)ccc(CNOC(C)(C)C)c4C[C@H]3C[C@@H]12 [AB]	> 8	< 4	< 4	< 4	4 to 8 (≈ 7.76 to 15.5 µM)	< 4	4 to 8 (≈ 7.76 to 15.5 µM)	< 35	< 35
CN(C)[C@@H]1C(O)=C(C(N)=O)C(=O)[C@@]2(O)C(O)=C3C(=O)c4c(O)ccc(/C=N/n5cccc5)c4C[C@H]3C[C@@H]12 [AC, (4S,4aS,5aR,12aS)-4-Dimethylamino-3,10,12,12a-tetrahydroxy-1,11-dioxo-7-(pyrrol-1-yliminomethyl)-1,4,4a,5,5a,6,11,12a-octahydro-naphthacene-2-carboxylic acid amide]	> 8	< 4	< 4	< 4	4 to 8 (≈ 7.9 to 15.8 µM)	< 4	4 to 8 (≈ 7.9 to 15.8 µM)	< 35	< 35
CCON(C)Cc1ccc(O)c2c1C[C@H]1C[C@H]3[C@H](N(C)C)C(O)=C(C(N)=O)C(=O)[C@@]3(O)C(O)=C1C2=O [AE]	> 8	< 4	< 4	< 4	4 to 8 (≈ 7.98 to 16 µM)	< 4	4 to 8 (≈ 7.98 to 16 µM)	> 75	< 35
CCO/N=C(\C)CN(C)Cc1ccc(O)c2c1C[C@H]1C[C@H]3[C@H](N(C)C)C(O)=C(C(N)=O)C(=O)[C@@]3(O)C(O)=C1C2=O [AL, (4S,4aS,5aR,12aS)-4-Dimethylamino-7-[(2-ethoxyimino-propyl)-methyl-amino]-methyl-3,10,12,12a-tetrahydroxy-1,11-dioxo-1,4,4a,5,5a,6,11,12a-octahydro-naphthacene-2-carboxylic acid amide]	4 to 8 (≈ 7.19 to 14.4 µM)	< 4	< 4	< 4	4 to 8 (≈ 7.19 to 14.4 µM)	< 4	4 to 8 (≈ 7.19 to 14.4 µM)	< 35	< 35
CCONCc1ccc(O)c2c1C[C@H]1C[C@H]3[C@@H](N(C)C)C(O)=C(C(N)=O)C(=O)[C@@]3(O)C(O)=C1C2=O [AM]	> 8	< 4	4 to 8 (≈ 8.2 to 16.4 µM)	< 4	4 to 8 (≈ 8.2 to 16.4 µM)	4 to 8 (≈ 8.2 to 16.4 µM)	> 8	> 75	> 75
CCO/N=C(/CCN(C)C)c1ccc(O)c2c1C[C@H]1C[C@H]3[C@@H](N(C)C)C(O)=C(C(N)=O)C(=O)[C@@]3(O)C(O)=C1C2=O [AN, (4R,4aS,5aR,12aS)-4-Dimethylamino-7-(3-dimethylamino-1-ethoxyimino-propyl)-3,10,12,12a-tetrahydroxy-1,11-dioxo-1,4,4a,5,5a,6,11,12a-octahydro-naphthacene-2-carboxylic acid amide]	< 4	< 4	< 4	< 4	4 to 8 (≈ 7.19 to 14.4 µM)	< 4	< 4	> 75	> 75
CN(C)[C@@H]1C(O)=C(C(N)=O)C(=O)[C@@]2(O)C(O)=C3C(=O)c4c(O)ccc(CN5CCCCO5)c4C[C@H]3C[C@@H]12 [DR]	> 8	< 4	< 4	< 4	4 to 8 (≈ 7.79 to 15.6 µM)	< 4	4 to 8 (≈ 7.79 to 15.6 µM)	35 to 75 (≈ 68.2 to 146 µM)	35 to 75 (≈ 68.2 to 146 µM)
C/C(=N\OCC(F)(F)F)c1cc(N)c(O)c2c1C[C@H]1C[C@H]3[C@H](N(C)C)C(O)=C(C(N)=O)C(=O)[C@@]3(O)C(O)=C1C2=O [DT, (4S,4aS,5aR,12aS)-9-Amino-4-dimethylamino-3,10,12,12a-tetrahydroxy-1,1,1-dioxo-7-[1-(2,2,2-trifluoro-ethoxyimino)-ethyl]-1,4,4a,5,5a,6,11,12a-octahydro-naphthacene-2-carboxylic acid amide]	4 to 8 (≈ 7.04 to 14.1 µM)	< 4	< 4	< 4	4 to 8 (≈ 7.04 to 14.1 µM)	< 4	4 to 8 (≈ 7.04 to 14.1 µM)	–	–
CN(C)[C@H]1C(O)=C(C(N)=O)C(=O)[C@@]2(O)C(O)=C3C(=O)c4c(O)ccc(CNOCC(F)F)c4C[C@H]3C[C@@H]12 [DY]	> 8	< 4	4 to 8 (≈ 7.64 to 15.3 µM)	< 4	4 to 8 (≈ 7.64 to 15.3 µM)	< 4	> 8	> 75	> 75
CC(=O)c1cccc2c1C[C@H]1C[C@H]3[C@@H](N(C)C)C(O)=C(C(N)=O)C(=O)[C@@]3(O)C(O)=C1C2=O [D]	> 8	4 to 8 (≈ 9.08 to 18.2 µM)	< 4	4 to 8 (≈ 9.08 to 18.2 µM)	> 8	< 4	> 8	> 75	> 75
CN(C)[C@H]1C(O)=C(C(N)=O)C(=O)[C@@]2(O)C(O)=C3C(=O)c4c(O)ccc(CNOCC(F)(F)F)c4C[C@H]3C[C@@H]12 [EA]	> 8	< 4	4 to 8 (≈ 7.39 to 14.8 µM)	< 4	4 to 8 (≈ 7.39 to 14.8 µM)	< 4	> 8	> 75	> 75
CN(C)[C@H]1C(O)=C(C(N)=O)C(=O)[C@@]2(O)C(O)=C3C(=O)c4c(O)ccc(CNOCCF)c4C[C@H]3C[C@@H]12 [EB]	> 8	< 4	4 to 8 (≈ 7.91 to 15.8 µM)	< 4	4 to 8 (≈ 7.91 to 15.8 µM)	< 4	> 8	–	–
CN(C)[C@@H]1C(O)=C(C(N)=O)C(=O)[C@@]2(O)C(O)=C3C(=O)c4c(O)ccc(CN5OCCC5=N)c4C[C@H]3C[C@@H]12 [EC]	> 8	–	< 4	–	–	< 4	> 8	–	–
COC(=O)CONCc1ccc(O)c2c1C[C@H]1C[C@H]3[C@H](N(C)C)C(O)=C(C(N)=O)C(=O)[C@@]3(O)C(O)=C1C2=O [ED]	4 to 8 (≈ 7.53 to 15.1 µM)	< 4	< 4	< 4	< 4	< 4	4 to 8 (≈ 7.53 to 15.1 µM)	< 35	< 35
CC(=O)c1cccc2c1C[C@H]1C[C@H]3[C@H](N(C)C)C(O)=C(C(N)=O)C(=O)[C@@]3(O)C(O)=C1C2=O [E]	> 8	< 4	< 4	< 4	> 8	< 4	4 to 8 (≈ 9.08 to 18.2 µM)	> 75	> 75
